From ChEMBL document CHEMBL1201862, “PubChem BioAssay data set” (2004) come the findings set out here.

Molecules are shown by their SMILES.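 96-well plates; 48 h exposure; 5 concentrations. Endpoints by linear interpolation between flanking doses. Not reached: highest tested concentration assigned. Here, GI50 denotes the concentration required for 50% inhibition of growth.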 Activity calls are given as the source filed them. Cut-off read from the data, not from the text of the source: active = GI50 up to about 1.1 µM and inactive = higher.

Among the test systems are MDA-MB-435; MDA-N; LOX IMVI; HOP-92; SK-MEL-2; COLO 205; HT-29; NCI-H226; PC-3; SF-539; M14; SR; CAKI-1; RPMI-8226; SF-295; TK-10; NCI-H522; A498; NCI-H23; HCT-116.
Holding throughout (experiment): growth of human tumour cells (NCI), 48 h

Consider `C=C1C(=O)OC2C1CCC(C)C1C=CC(=O)C12C` (stereo not given), for which the GI50 was 1730 nM (inactive) in the assay with MDA-MB-435; 1770 nM (inactive) in the assay on MDA-N; 1930 nM (inactive) in the assay on LOX IMVI; 4100 nM (inactive) in the assay on HOP-92; 4390 nM (inactive) with SK-MEL-2; 2170 nM (inactive) in the assay with COLO 205. For the same compound, the GI50 in the assay with HT-29 was 2020 nM (inactive); with NCI-H226, 3750 nM (inactive); in the assay on PC-3 it was 4490 nM (inactive); in the assay on SF-539, 2740 nM (inactive); in the assay on M14, 1950 nM (inactive); in the assay with SR, 1510 nM (inactive). For the same compound, the GI50 in the assay with CAKI-1 is 2970 nM (inactive); with RPMI-8226, 1810 nM (inactive); with SF-295, 6810 nM (inactive); in the assay with TK-10 it was 3050 nM (inactive); in the assay with NCI-H522, 891 nM (active); in the assay on A498 it was 12100 nM (inactive). In addition, the GI50 was 3250 nM (inactive) with NCI-H23 and 1740 nM (inactive) with HCT-116.

For `CC[C@@]1(O)C(=O)OCc2c1cc1n(c2=O)Cc2c-1nc1ccccc1c2/C=N\NC(=O)C(N)CS` (stereo not given in full), the GI50 in the assay with MDA-MB-435 is 5360 nM (inactive); with MDA-N it was 9400 nM (inactive); in the assay with LOX IMVI it was 454 nM (active); in the assay on HOP-92 it was 3130 nM (inactive); with SK-MEL-2, 46300 nM (inactive); in the assay with COLO 205 it was 41400 nM (inactive). Further, the GI50 is 9290 nM (inactive) with HT-29; 1660 nM (inactive) in the assay on NCI-H226; 3520 nM (inactive) in the assay on PC-3; 249 nM (active) with SF-539; 665 nM (active) in the assay with M14; 37.3 nM (active) in the assay with SR. The GI50 is 495 nM (active) with CAKI-1; 1320 nM (inactive) with RPMI-8226; 501 nM (active) in the assay on SF-295; > 84900 nM (inactive) in the assay on TK-10; 883 nM (active) in the assay with NCI-H522; 2550 nM (inactive) in the assay with A498. Moreover, the GI50 in the assay with NCI-H23 was 733 nM (active); in the assay with HCT-116 it was 1700 nM (inactive).

`c1ccc(/C(=N\Nc2nc3ccccc3[nH]2)c2ccccn2)cc1`: the GI50 in the assay on MDA-MB-435 is 755 nM (active); in the assay with MDA-N, 762 nM (active); in the assay on LOX IMVI, 516 nM (active); in the assay with HOP-92, 238 nM (active); with SK-MEL-2, 4090 nM (inactive); in the assay with COLO 205, < 20.7 nM (active). The GI50 with HT-29 is 10.1 nM (active); in the assay with NCI-H226, 256 nM (active); in the assay with PC-3, 182 nM (active); in the assay on SF-539, 388 nM (active); with M14, 361 nM (active); in the assay with SR, 348 nM (active). For the same compound, the GI50 is 425 nM (active) with CAKI-1; 242 nM (active) with RPMI-8226; 1690 nM (inactive) in the assay on SF-295; 314 nM (active) with TK-10; 250 nM (active) in the assay with NCI-H522; 916 nM (active) in the assay on A498. Also, the figures for the GI50 with NCI-H23 and with HCT-116 were 381 nM (active) and 36.2 nM (active), respectively.

For `Cc1ccc(/C=C2\CCC/C(=C\c3ccc(O)c(CN4CCCCC4)c3)C2=O)cc1`, the GI50 was 3410 nM (inactive) in the assay on MDA-MB-435; 4220 nM (inactive) with MDA-N; 3180 nM (inactive) in the assay with LOX IMVI; 9710 nM (inactive) with HOP-92; 19900 nM (inactive) in the assay with SK-MEL-2; 5200 nM (inactive) in the assay with COLO 205. For the same compound, the GI50 in the assay on HT-29 is 1870 nM (inactive); with NCI-H226, 7550 nM (inactive); in the assay on PC-3, 8050 nM (inactive); in the assay on SF-539 it was 9420 nM (inactive); in the assay with M14 it was 3730 nM (inactive); in the assay on SR, 3710 nM (inactive). For the same compound, the GI50 is 14600 nM (inactive) with CAKI-1; 5080 nM (inactive) in the assay with RPMI-8226; 10700 nM (inactive) with SF-295; 14600 nM (inactive) in the assay on TK-10; 3850 nM (inactive) with NCI-H522; 3100 nM (inactive) in the assay on A498. For the same compound, the values for the GI50 in the assay with NCI-H23 and in the assay with HCT-116 were 5640 nM (inactive) and 2740 nM (inactive), respectively.

Turning to `CC1OC2/C=C\CC(O)C(C)(C)C3CCC(C)C4(O3)O[B-]35OC(C(=O)OC1C2)C1(OC(CCC1C)C(C)(C)C(O)C/C=C\C1CC(OC(=O)C4O3)C(C)O1)O5` (stereo not given), the GI50 was 2540 nM (inactive) in the assay on MDA-MB-435; 3150 nM (inactive) in the assay with MDA-N; 1970 nM (inactive) with LOX IMVI; 2940 nM (inactive) in the assay with HOP-92; 1540 nM (inactive) with SK-MEL-2; 2030 nM (inactive) in the assay on COLO 205. For the same compound, the GI50 in the assay with HT-29 was 2750 nM (inactive); in the assay with NCI-H226, 726 nM (active); in the assay with PC-3 it was 2770 nM (inactive); in the assay with SF-539, 2420 nM (inactive); with M14, 2110 nM (inactive); in the assay with SR, 1780 nM (inactive). For the same compound, the GI50 with CAKI-1 is 7600 nM (inactive); in the assay on RPMI-8226, 1630 nM (inactive); in the assay with SF-295, 1800 nM (inactive); with TK-10, 2970 nM (inactive); in the assay with NCI-H522 it was 344 nM (active); in the assay with A498, 2450 nM (inactive). Besides, the GI50 in the assay with NCI-H23 was 1850 nM (inactive); in the assay with HCT-116, 2010 nM (inactive).

For `COc1cc(C2c3cc4c(cc3[C@@H](Nc3ccc(C#N)cc3)C3COC(=O)[C@H]23)OCO4)cc(OC)c1O` (stereo not given in full), the GI50 with MDA-MB-435 was 8770 nM (inactive); in the assay with MDA-N it was 6210 nM (inactive); with LOX IMVI, 1080 nM (active); in the assay with HOP-92 it was 1020 nM (active); in the assay with SK-MEL-2, 14600 nM (inactive); in the assay on COLO 205, 6380 nM (inactive). The GI50 with HT-29 is 3050 nM (inactive); in the assay on NCI-H226, 665 nM (active); with PC-3 it was 9820 nM (inactive); with SF-539 it was 1140 nM (inactive); in the assay with M14, 1350 nM (inactive); in the assay with SR, 261 nM (active). For the same compound, the GI50 is 436 nM (active) in the assay with CAKI-1; 155 nM (active) in the assay on RPMI-8226; 767 nM (active) with SF-295; 7820 nM (inactive) with TK-10; 1880 nM (inactive) in the assay on NCI-H522; 2010 nM (inactive) with A498. Besides, the GI50 in the assay on NCI-H23 is 622 nM (active); with HCT-116, 2010 nM (inactive).

Consider `O=c1ccc2cc(O)c(O)cc2o1` [ESCULETIN], for which the GI50 in the assay on MDA-MB-435, in the assay with MDA-N, in the assay with LOX IMVI, with HOP-92, in the assay on SK-MEL-2 and in the assay on COLO 205 was > 100000 nM (inactive) each time. For the same compound, the GI50 in the assay on HT-29 was > 100000 nM (inactive); in the assay on NCI-H226, > 100000 nM (inactive); in the assay with PC-3 it was > 92900 nM (inactive); in the assay on SF-539 it was > 100000 nM (inactive); with M14, > 100000 nM (inactive); in the assay on SR it was > 100000 nM (inactive). In addition, the GI50 in the assay with CAKI-1, in the assay on RPMI-8226, with SF-295, in the assay with TK-10, in the assay on NCI-H522 and in the assay with A498 was > 100000 nM (inactive) in each case. The GI50 in the assay on NCI-H23 and with HCT-116 was > 100000 nM (inactive) in each case.
